The results in this text go back to US20130090476A1, “Thiazolylpiperidine Derivatives as Fungicides” (priority 2009, published 2013).

Like-named read-outs stand apart in the source and are kept apart here. Marks after values point to notes of the source that are not given here. A value given as a limit tells only on which side of the number the result lay.

One may read the chromatographic logP as lipophilicity estimated from chromatographic retention.

Data set [1] can be described thus: logP determination by HPLC (EEC Directive 79/831 Annex V.A8), LC-MS.
The test system of another data set is Phytophthora infestans. Put plainly: whole plant or invertebrate. Type of data set: in vivo. The following applies: in Solanum lycopersicum, 168 h, read-out: efficacy.
The conditions of data set [2]: pH 2.7.
The nature of another data set: physchem. Conditions: pH 2.7.
The mark [3] stands for this setting: pH 2.7, log P (pH2.7), pH 2.7, value given in the preparation text.
The mark [4] stands for this setting: pH 2.7, logP, * acidic range, pH 2.7, 0.1% aqueous formic acid/acetonitrile.
Where [5] appears, read: pH 7.8, logP, ** neutral range, pH 7.8, 0.001 molar aqueous ammonium bicarbonate/acetonitrile.

As to `Cc1cc(C(F)(F)F)nn1CC(=O)N1CCC(c2nc(CS(=O)(=O)C3CCCCC3)cs2)CC1` [Compound I-7, 1-(4-{4-[(Cyclohexylsulphonyl)methyl]-1,3-thiazol-2-yl}piperidin-1-yl)-2-[5-methyl-3-(trifluoromethyl)-1H-pyrazol-1-yl]ethanone], the chromatographic logP in data set [1] (setting [3]) came to 2.9; in data set [1] (setting [4]), 2.9; in data set [1] (setting [5]) it was 2.87. Moreover, the pest or weed control at 500 ppm in the data set on Phytophthora infestans is no less than 70%.

In the case of `O=C(Nc1cc(Cl)ccc1Cl)N1CCC(c2nc(CSc3nnnn3-c3ccccc3)cs2)CC1` [Compound I-49], the logP in data set [2] was 3.95*.

Consider `Cc1cc(C(F)(F)F)nn1CC(=O)N1CCC(c2nc(CS(=O)(=O)c3cccc4ccccc34)cs2)CC1` [Compound I-10, 2-[5-Methyl-3-(trifluoromethyl)-1H-pyrazol-1-yl]-1-(4-{4-[(1-naphthylsulphonyl)methyl]-1,3-thiazol-2-yl}piperidin-1-yl)ethanone], for which the chromatographic logP in data set [1] (setting [3]) is 3.21; in data set [1] (setting [4]), 3.19. Also, in the data set on Phytophthora infestans, the pest or weed control at 500 ppm is no less than 70%.

`Cc1cc(C(F)(F)F)nn1CC(=S)N1CCC(c2nc(CSc3nnnn3-c3ccccc3)cs2)CC1` [Compound I-15, 2-[5-Methyl-3-(trifluoromethyl)-1H-pyrazol-1-yl]-1-[4-(4-{[(1-phenyl-1H-tetrazol-5-yl)sulphanyl]methyl}-1,3-thiazol-2-yl)piperidin-1-yl]ethanethione]: the chromatographic logP stood at 3.82 in data set [1] (setting [3]), 2.82 in data set [1] (setting [4]) and 2.87 in data set [1] (setting [5]). In addition, in the data set with Phytophthora infestans, the pest or weed control at 500 ppm is no less than 70%.

`CC(C)(C)OC(=O)N1CCC(c2nc(CSC(=N)N)cs2)CC1` [IX-1, Amino[({2-[1-(tert-butoxycarbonyl)piperidin-4-yl]-1,3-thiazol-4-yl}methyl)sulphanyl]methaniminium iodide] came in with a chromatographic logP in the data set “physchem” of 1.44.

For the compound `Cc1ccc(Cl)c(NC(=O)N2CCC(c3nc(CSc4nnnn4-c4ccccc4)cs3)CC2)c1` [Compound I-87], in data set [2], the logP is 3.72*.

`Cc1cc(C(F)(F)F)nn1CC(=O)N1CCC(c2nc(CS(=O)(=O)c3cccc4cccnc34)cs2)CC1` [Compound I-9, 1-(4-{4-[(Quinolin-8-ylsulphonyl)methyl]-1,3-thiazol-2-yl}piperidin-1-yl)-2-[5-methyl-3-(trifluoromethyl)-1H-pyrazol-1-yl]ethanone]: the chromatographic logP in data set [1] (setting [3]) and in data set [1] (setting [4]) was 2.63 each time. For the same compound, the pest or weed control at 500 ppm with Phytophthora infestans is no less than 70%.

`Cc1cc(C(F)(F)F)nn1CC(=O)N1CCC(c2nc(C[S+]([O-])c3cccc4ccccc34)cs2)CC1` (stereo not shown) [Compound I-13, 2-[5-Methyl-3-(trifluoromethyl)-1H-pyrazol-1-yl]-1-(4-{4-[(1-naphthylsulphinyl)methyl]-1,3-thiazol-2-yl}piperidin-1-yl)ethanone]: the chromatographic logP in data set [1] (setting [3]) and in data set [1] (setting [4]) was 2.86 each time. For the same compound, in the data set on Phytophthora infestans, the pest or weed control at 500 ppm is no less than 70%.

Consider `Cc1cc(C(F)(F)F)nn1CC(=O)N1CCC(c2nc(CS(=O)(=O)C34CC5CC(CC(C5)C3)C4)cs2)CC1` [Compound I-6, 1-[4-(4-{[(3S,5S,7S)-Adamantan-1-ylsulphonyl]methyl}-1,3-thiazol-2-yl)piperidin-1-yl]-2-[5-methyl-3-(trifluoromethyl)-1H-pyrazol-1-yl]ethanone], for which, in data set [2], the “log P (pH2.7)” value stood at 3.42 and the logP is 3.4*.

In the case of `O=C(Cn1nc(C(F)F)cc1C(F)F)N1CCC(c2nc(CSc3nnnn3-c3ccccc3)cs2)CC1` [Compound I-35], the logP in data set [2] is listed as 3.11*.

As to `Cc1ccc([N+](=O)[O-])cc1NC(=O)N1CCC(c2nc(CSc3nnnn3-c3ccccc3)cs2)CC1` [Compound I-18], the logP in data set [2] is on record as 3.09*.

For `O=C(Cc1cc(Cl)ccc1Cl)N1CCC(c2nc(CSc3nnnn3-c3ccccc3)cs2)CC1` [Compound I-46], the logP in data set [2] is given as 3.8*.

Turning to `Cc1cc(C(F)(F)F)nn1CC(=O)N1CCC(c2nc(CSc3cccc4ccccc34)cs2)CC1` [Compound I-1, 2-[5-Methyl-3-(trifluoromethyl)-1H-pyrazol-1-yl]-1-(4-{4-[(1-naphthylsulphanyl)methyl]-1,3-thiazol-2-yl}piperidin-1-yl)ethanone], the chromatographic logP in data set [1] (setting [3]) and in data set [1] (setting [4]) was 4.33 throughout. Besides, the pest or weed control at 500 ppm in the data set with Phytophthora infestans is no less than 70%.

Consider `Cc1ccc(Cl)cc1NC(=O)N1CCC(c2nc(CSc3nnnn3-c3ccccc3)cs2)CC1` [Compound I-24], for which, in data set [2], the logP was 3.43*.

Take `Cc1ccc(C)c(NC(=S)N2CCC(c3nc(CSc4nnnn4-c4ccccc4)cs3)CC2)c1` [Compound I-98]: the logP in data set [2] is 3.52*.

In the case of `COc1ccc(C)cc1NC(=O)N1CCC(c2nc(CSc3nnnn3-c3ccccc3)cs2)CC1` [Compound I-33], in data set [2], the logP is reported as 3.5*.

As for `Cc1ccc(F)c(NC(=O)N2CCC(c3nc(CSc4nnnn4-c4ccccc4)cs3)CC2)c1` [Compound I-60], the logP in data set [2] is recorded as 3.28*.

Consider `O=C(Cn1nc(C(F)(F)F)cc1C(F)(F)F)N1CCC(c2nc(CSc3nnnn3-c3ccccc3)cs2)CC1` [Compound I-34], for which the logP in data set [2] is reported as 3.8*.

As for `Cc1cc(C(F)(F)F)nn1CC(=O)N1CCC(c2nc(CSC3CCCCC3)cs2)CC1` [Compound I-3, 1-(4-{4-[(Cyclohexylsulphanyl)methyl]-1,3-thiazol-2-yl}piperidin-1-yl)-2-[5-methyl-3-(trifluoromethyl)-1H-pyrazol-1-yl]ethanone], the chromatographic logP in data set [1] (setting [3]) and in data set [1] (setting [4]) was 4.3 each time. The pest or weed control at 500 ppm in the data set with Phytophthora infestans is no less than 70%.

As to `Cc1cc(C(F)(F)F)nn1CC(=O)N1CCC(c2nc(CS(=O)(=O)c3nnnn3-c3ccccc3)cs2)CC1` [Compound I-8, 2-[5-Methyl-3-(trifluoromethyl)-1H-pyrazol-1-yl]-1-[4-(4-{[(1-phenyl-1H-tetrazol-5-yl)sulphonyl]methyl}-1,3-thiazol-2-yl)piperidin-1-yl]ethanone], the chromatographic logP in data set [1] (setting [3]) came to 3.1; in data set [1] (setting [4]), 3.07. For the same compound, in the data set with Phytophthora infestans, the pest or weed control at 500 ppm was no less than 70%.

Regarding `Cc1ccc(C)c(NC(=O)N2CCC(c3nc(CSC45CC6CC(CC(C6)C4)C5)cs3)CC2)c1` [Compound I-72], the logP in data set [2] is reported as 5.38*.

Turning to `Cc1cc(C(F)(F)F)nn1CC(=O)N1CCC(c2nc(CSC34CC5CC(CC(C5)C3)C4)cs2)CC1` [Compound I-2, 1-[4-(4-{[(3S,5S,7S)-Adamantan-1-ylsulphanyl]methyl}-1,3-thiazol-2-yl)piperidin-1-yl]-2-[5-methyl-3-(trifluoromethyl)-1H-pyrazol-1-yl]ethanone], in data set [2], the “log P (pH2.7)” value turned out to be 5.21 and the logP was 5.21*.

For the compound `O=C(Cn1nc(C(F)F)cc1C(F)F)N1CCC(c2nc(CS(=O)(=O)c3nnnn3-c3ccccc3)cs2)CC1` [Compound I-29], the logP in data set [2] is 2.97*.

Take `Cc1ccc(C)c(NC(=O)N2CCC(c3nc(CSc4nnnn4-c4ccccc4)cs3)CC2)c1` [Compound I-84]: the logP in data set [2] is on record as 3.26*.

On to `Fc1ccc(F)c(NC(=S)N2CCC(c3nc(CSc4nnnn4-c4ccccc4)cs3)CC2)c1` [Compound I-23], for which the logP in data set [1] (* acidic range, pH 2.7, 0.1% aqueous formic acid/acetonitrile) is listed as 3.26*.

`CC(C)(C)OC(=O)N1CCC(c2nc(CI)cs2)CC1` [VI-1, tert-Butyl 4-[4-(iodomethyl)-1,3-thiazol-2-yl]piperidine-1-carboxylate] gave a chromatographic logP in data set [1] (setting [3]) of 3.71.
